Values of other authors in patent US20030167159A1, “Method for determining molecular surface areas and volumes” (California Institute of Technology, priority 2001, published 2003).
Where a SMILES comes first, the peptide text is derived from it.

Legend:
Details in all cases: as reported in Bursulaya et al.
Trypsin (trp) = target: T1, Trypsin (trp) (Bos taurus, UniProt P00760)
T1 sequence (P00760 24-246): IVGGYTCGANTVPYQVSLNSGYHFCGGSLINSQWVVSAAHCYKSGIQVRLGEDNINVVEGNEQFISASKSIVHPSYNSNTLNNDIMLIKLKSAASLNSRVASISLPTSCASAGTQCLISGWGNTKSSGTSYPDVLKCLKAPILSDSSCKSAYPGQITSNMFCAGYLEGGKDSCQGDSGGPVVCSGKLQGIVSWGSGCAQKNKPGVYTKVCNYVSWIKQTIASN

[1] = target: T2, L-Arabinose binding protein (ara) (Escherichia coli, UniProt P02924)
T2 sequence (P02924 24-329): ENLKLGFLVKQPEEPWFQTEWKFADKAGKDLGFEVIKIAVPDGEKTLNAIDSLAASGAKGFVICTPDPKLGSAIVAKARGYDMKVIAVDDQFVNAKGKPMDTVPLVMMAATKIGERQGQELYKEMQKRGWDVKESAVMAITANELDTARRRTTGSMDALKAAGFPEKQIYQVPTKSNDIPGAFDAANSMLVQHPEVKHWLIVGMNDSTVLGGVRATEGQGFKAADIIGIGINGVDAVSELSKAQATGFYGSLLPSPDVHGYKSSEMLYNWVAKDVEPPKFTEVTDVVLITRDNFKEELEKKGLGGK

ε-Thrombin (ret) = target: T3, ε-Thrombin (ret) (Bos taurus, UniProt P00735)
T3 construct: ε-Thrombin (ret)

Intestinal FABP (fab) = target: T4, Intestinal FABP (fab) (Rattus norvegicus, UniProt P02693)
T4 sequence (P02693 1-132): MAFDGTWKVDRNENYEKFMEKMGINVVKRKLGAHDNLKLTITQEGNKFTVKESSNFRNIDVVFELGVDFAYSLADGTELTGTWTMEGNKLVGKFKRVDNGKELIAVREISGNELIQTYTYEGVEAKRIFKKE

Carboxypeptidase A (car) = target: T5, Carboxypeptidase A (car) (Bos taurus, UniProt P00730)
T5 sequence (P00730 111-419): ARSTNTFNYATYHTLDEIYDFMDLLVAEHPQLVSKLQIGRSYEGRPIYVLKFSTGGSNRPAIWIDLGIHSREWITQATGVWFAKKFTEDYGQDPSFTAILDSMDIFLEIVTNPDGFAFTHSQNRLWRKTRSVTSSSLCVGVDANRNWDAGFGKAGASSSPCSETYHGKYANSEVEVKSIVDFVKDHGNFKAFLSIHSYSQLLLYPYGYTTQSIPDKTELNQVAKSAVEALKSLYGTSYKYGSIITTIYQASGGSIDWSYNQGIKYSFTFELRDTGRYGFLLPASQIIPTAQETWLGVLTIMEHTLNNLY

[2] = target: T6, Cytochrome P-450cam (cyt) (Pseudomonas putida, UniProt P00183)
T6 sequence (P00183 1-415): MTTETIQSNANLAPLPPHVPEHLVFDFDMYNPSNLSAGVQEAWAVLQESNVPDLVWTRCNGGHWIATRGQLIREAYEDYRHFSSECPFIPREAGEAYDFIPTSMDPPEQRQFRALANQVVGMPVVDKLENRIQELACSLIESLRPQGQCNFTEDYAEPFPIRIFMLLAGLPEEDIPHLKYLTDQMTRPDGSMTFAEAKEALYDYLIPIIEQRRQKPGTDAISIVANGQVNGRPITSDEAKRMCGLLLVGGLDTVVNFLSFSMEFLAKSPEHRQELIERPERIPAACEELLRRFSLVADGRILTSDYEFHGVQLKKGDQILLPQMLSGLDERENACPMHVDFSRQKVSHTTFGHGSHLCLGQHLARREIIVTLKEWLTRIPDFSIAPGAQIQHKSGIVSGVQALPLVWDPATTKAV

Compound: Cc1ccc(S(=O)(=O)N[C@@H](Cc2cccc(C(=N)N)c2)C(=O)N2CCCCC2)cc1 [1pph]
- percentage of ligands in the 10037-compound database that score better than the co-crystal ligand, DOCK (Trypsin (trp)): 37%
- percentage of ligands in the 10037-compound database that score better than the co-crystal ligand, FlexX (Trypsin (trp)): 0.6%
- percentage of ligands in the 10037-compound database that score better than the co-crystal ligand, ICM (Trypsin (trp)): 0.3%

Compound: O[C@@H]1[C@@H](O)[C@@H](O)CO[C@H]1O [1abe]
- percentage of ligands in the 10037-compound database that score better than the co-crystal ligand, DOCK [1]: 0.5%
- percentage of ligands in the 10037-compound database that score better than the co-crystal ligand, FlexX [1]: 0.2%
- percentage of ligands in the 10037-compound database that score better than the co-crystal ligand, ICM [1]: 0.01%

Compound: Cc1ccc(S(=O)(=O)N[C@@H](Cc2ccc(C(=N)N)cc2)C(=O)N2CCCCC2)cc1 [1ett]
- percentage of ligands in the 10037-compound database that score better than the co-crystal ligand, DOCK (ε-Thrombin (ret); Dock): 0.9%
- percentage of ligands in the 10037-compound database that score better than the co-crystal ligand, FlexX (ε-Thrombin (ret); FlexX): 9%
- percentage of ligands in the 10037-compound database that score better than the co-crystal ligand, ICM (ε-Thrombin (ret); ICM): 0.06%

Compound: CCCCCCCCCCCCCCCC(=O)O [2ifb]
- percentage of ligands in the 10037-compound database that score better than the co-crystal ligand, DOCK (Intestinal FABP (fab); Dock): 7.1%
- percentage of ligands in the 10037-compound database that score better than the co-crystal ligand, FlexX (Intestinal FABP (fab); FlexX): 99.3%
- percentage of ligands in the 10037-compound database that score better than the co-crystal ligand, ICM (Intestinal FABP (fab); ICM): 0.5%

Compound: NCC1CCCCC1 [1tng]
- percentage of ligands in the 10037-compound database that score better than the co-crystal ligand, DOCK (Trypsin (trp)): 28.7%
- percentage of ligands in the 10037-compound database that score better than the co-crystal ligand, FlexX (Trypsin (trp)): 30.8%
- percentage of ligands in the 10037-compound database that score better than the co-crystal ligand, ICM (Trypsin (trp)): 0.3%

Compound: OC[C@H]1OC(O)[C@H](O)[C@@H](O)[C@H]1O (stereo partly drawn) [5abp]
- percentage of ligands in the 10037-compound database that score better than the co-crystal ligand, DOCK [1]: 0.2%
- percentage of ligands in the 10037-compound database that score better than the co-crystal ligand, FlexX [1]: 0.4%
- percentage of ligands in the 10037-compound database that score better than the co-crystal ligand, ICM [1]: 0.02%

Compound: N[C@H]1C[C@@H]1c1ccccc1 [1tnl]
- percentage of ligands in the 10037-compound database that score better than the co-crystal ligand, DOCK (Trypsin (trp)): 82.9%
- percentage of ligands in the 10037-compound database that score better than the co-crystal ligand, FlexX (Trypsin (trp)): 39.1%
- percentage of ligands in the 10037-compound database that score better than the co-crystal ligand, ICM (Trypsin (trp)): 51.6%

Compound: NCC(=O)N[C@@H](Cc1ccc(O)cc1)C(=O)O [3cpa] (H-Gly-Tyr-OH)
- percentage of ligands in the 10037-compound database that score better than the co-crystal ligand, DOCK (Carboxypeptidase A (car)): 14.2%
- percentage of ligands in the 10037-compound database that score better than the co-crystal ligand, FlexX (Carboxypeptidase A (car)): 1.4%
- percentage of ligands in the 10037-compound database that score better than the co-crystal ligand, ICM (Carboxypeptidase A (car)): 0.3%

Compound: NCCc1ccccc1 [1tnj]
- percentage of ligands in the 10037-compound database that score better than the co-crystal ligand, DOCK (Trypsin (trp)): 45.1%
- percentage of ligands in the 10037-compound database that score better than the co-crystal ligand, FlexX (Trypsin (trp)): 47.9%
- percentage of ligands in the 10037-compound database that score better than the co-crystal ligand, ICM (Trypsin (trp)): 1.1%

Compound: NCCCc1ccccc1 [1tnk]
- percentage of ligands in the 10037-compound database that score better than the co-crystal ligand, DOCK (Trypsin (trp)): 58.1%
- percentage of ligands in the 10037-compound database that score better than the co-crystal ligand, FlexX (Trypsin (trp)): 37.1%
- percentage of ligands in the 10037-compound database that score better than the co-crystal ligand, ICM (Trypsin (trp)): 14.6%

Compound: N=C(N)c1ccccc1 [3ptb]
- percentage of ligands in the 10037-compound database that score better than the co-crystal ligand, DOCK (Trypsin (trp)): 20.3%
- percentage of ligands in the 10037-compound database that score better than the co-crystal ligand, FlexX (Trypsin (trp)): 14%
- percentage of ligands in the 10037-compound database that score better than the co-crystal ligand, ICM (Trypsin (trp)): 0.1%

Compound: CC12CCC(CC1=O)C2(C)C (stereo not drawn) [2cpp]
- percentage of ligands in the 10037-compound database that score better than the co-crystal ligand, DOCK ([2]; Dock): 7.3%
- percentage of ligands in the 10037-compound database that score better than the co-crystal ligand, FlexX ([2]; FlexX): 12.6%
- percentage of ligands in the 10037-compound database that score better than the co-crystal ligand, ICM ([2]; ICM): 11.7%

Compound: C[C@H]1O[C@H](O)[C@H](O)[C@@H](O)[C@H]1O [1abf]
- percentage of ligands in the 10037-compound database that score better than the co-crystal ligand, DOCK [1]: 1.2%
- percentage of ligands in the 10037-compound database that score better than the co-crystal ligand, FlexX [1]: 0.2%
- percentage of ligands in the 10037-compound database that score better than the co-crystal ligand, ICM [1]: 0.03%

Compound: O=C(O)C[C@@H](Cc1ccccc1)C(=O)O [1cbx]
- percentage of ligands in the 10037-compound database that score better than the co-crystal ligand, DOCK (Carboxypeptidase A (car)): 36.8%
- percentage of ligands in the 10037-compound database that score better than the co-crystal ligand, FlexX (Carboxypeptidase A (car)): 2.7%
- percentage of ligands in the 10037-compound database that score better than the co-crystal ligand, ICM (Carboxypeptidase A (car)): 0.2%
